The structures appear in SMILES notation.

This assay addresses phosphorylated active hERK2 enzyme (Homo sapiens (Human), UniProt P28482). Description: Active Human ERK2 (hERK2) Activity Assay (IMAP-FP). The format is biochemical. As to conditions: Table 6, 0.5 nM hERK2, 30 μM ATP, 10 point titration, read-out: AERK2 IC50. In a few lines: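 IMAP fluorescence-polarization kinase assay: 0.5 nM activated hERK2 with 900 nM unlabeled plus 80 nM labeled peptide and 30 μM ATP, reacted 60 min. Quenched with IMAP beads in binding buffer with 24 mM NaCl; FP read after 60 min equilibration.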

Chain of phosphorylated active hERK2 enzyme (P28482 whole entry): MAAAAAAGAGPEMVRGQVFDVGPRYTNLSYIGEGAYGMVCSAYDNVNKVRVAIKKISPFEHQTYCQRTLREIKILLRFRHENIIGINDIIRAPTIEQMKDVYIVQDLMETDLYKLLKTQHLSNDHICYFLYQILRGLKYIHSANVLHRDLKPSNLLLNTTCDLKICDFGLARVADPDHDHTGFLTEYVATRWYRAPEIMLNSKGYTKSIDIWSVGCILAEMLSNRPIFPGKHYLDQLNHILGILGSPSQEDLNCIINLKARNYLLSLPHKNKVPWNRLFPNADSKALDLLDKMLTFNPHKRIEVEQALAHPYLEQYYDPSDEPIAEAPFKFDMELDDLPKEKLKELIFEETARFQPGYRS

Broadly, the IC50 is the concentration that inhibits the measured activity by half. Take `Nc1n[nH]c2cc(NC(=O)N[C@H](c3ccccc3)[C@@H]3CCCO3)ncc12` [Example 155, 1-(3-amino-1H-pyrazolo[4,3-c]pyridin-6-yl)-3-{(R)-phenyl[(2S)-tetrahydrofuran-2-yl]methyl}urea]: the IC50 was 0.495 µM. In the case of `COC[C@@H](NC(=O)Nc1cc2[nH]nc(NCC3CCC3)c2cn1)c1ccccc1` [Example 156, 1-{3-[(cyclobutyl-methyl)amino]-1H-pyrazolo[4,3-c]-pyridin-6-yl}-3-[(1S)-2-methoxy-1-phenylethyl]urea] it was 0.0007 µM; in that of `COC[C@@H](NC(=O)Nc1cc2[nH]nc(N(CC3CCC3)CC3CCC3)c2cn1)c1ccccc1` [Example 157, 1-{3-[bis(cyclobutyl-methyl)amino]-1H-pyrazolo[4,3-c]pyridin-6-yl}-3-[(1S)-2-methoxy-1-phenylethyl]urea], 0.0932 µM; in that of `COC[C@@H](NC(=O)Nc1cc2[nH]nc(NC3CCOC3)c2cn1)c1ccccc1` (stereo partly drawn) [Example 158, 1-[(1S)-2-methoxy-1-phenylethyl]-3-[3-(tetrahydro-furan-3-ylamino)-1H-pyrazolo[4,3-c]pyridin-6-yl]urea], 0.0011 µM. In the case of `C[C@@H](NC(=O)Nc1cc2[nH]nc(NCC3CC3)c2cn1)c1ccccc1` [Example 159, 1-{3-[(cyclopropyl-methyl)amino]-1H-pyrazolo[4,3-c]-pyridin-6-yl}-3-[(1R)-1-phenylethyl]urea], the IC50 worked out at 0.0018 µM. In the case of `C[C@@H](NC(=O)Nc1cc2[nH]nc(N(CC3CC3)CC3CC3)c2cn1)c1ccccc1` [Example 160, 1-{3-[bis(cyclopropyl-methyl)amino]-1H-pyrazolo[4,3-c]-pyridin-6-yl}-3-[(1R)-1-phenylethyl]urea], the IC50 came to 0.279 µM. In the case of `C[C@@H](NC(=O)Nc1cc2[nH]nc(NC3CCOC3)c2cn1)c1ccccc1` (stereo partly drawn) [Example 161, 1-[(1R)-1-phenylethyl]-3-[3-(tetrahydrofuran-3-ylamino)-1H-pyrazolo[4,3-c]pyridin-6-yl]urea] it was 0.0023 µM. For `C[C@@H](NC(=O)Nc1cc2[nH]nc(NC3CCNCC3)c2cn1)c1ccccc1` [Example 162, 1-[(1R)-1-phenylethyl]-3-[3-(piperidin-4-ylamino)-1H-pyrazolo[4,3-c]-pyridin-6-yl]urea] the value was 0.165 µM. For `CC(C)C(=O)Nc1n[nH]c2cc(NC(=O)N[C@H](C)c3ccccc3)ncc12` [Example 163, 2-methyl-N-[6-({[(1R)-1-phenylethyl]-carbamoyl}amino)-1H-pypyrazolo[4,3-c]-pyridin-3-yl]propanamide] the value was 0.0006 µM; for `C[C@@H](NC(=O)Nc1cc2[nH]nc(NC3CCCNC3)c2cn1)c1ccccc1` (stereo partly drawn) [Example 164, 1-[(1R)-1-phenylethyl]-3-[3-(piperidin-3-ylamino)-1H-pyrazolo[4,3-c]-pyridin-6-yl]urea], 0.0302 µM. Consider `C[C@@H](NC(=O)Nc1cc2[nH]nc(NCC3CCNCC3)c2cn1)c1ccccc1` [Example 165, 1-[(1R)-1-phenylethyl]-3-{3-[(piperidin-4-ylmethyl)amino]-1H-pyrazolo[4,3-c]pyridin-6-yl}urea], for which the IC50 was 0.0502 µM. For `C[C@@H](NC(=O)Nc1cc2[nH]nc(NCC3CCOCC3)c2cn1)c1ccccc1` [Example 166, 1-[(1R)-1-phenylethyl]-3-{3-[(tetrahydro-2H-pyran-4-yl-methyl)amino]-1H-pyrazolo[4,3-c]pyridin-6-yl}urea] the value was 0.0017 µM. For the molecule `C[C@@H](NC(=O)Nc1cc2[nH]nc(NCC3CCCOC3)c2cn1)c1ccccc1` (stereo partly drawn) [Example 167, 1-[(1R)-1-phenylethyl]-3-{3-[(tetrahydro-2H-pyran-3-yl-methyl)amino]-1H-pyrazolo[4,3-c]pyridin-6-yl}urea], the IC50 amounted to 0.0042 µM. For `C[C@@H](NC(=O)Nc1cc2[nH]nc(NC3CNC3)c2cn1)c1ccccc1` [Example 168, 1-[3-(azetidin-3-ylamino)-1H-pyrazolo[4,3-c]-pyridin-6-yl]-3-[(1R)-1-phenylethyl]urea] the value was 0.0317 µM.

The record behind these values is patent publication US9233979B2, “Compounds that are ERK inhibitors” (Merck Sharp & Dohme Corp., priority 2012, dated 2016).
